In US10745382B2 (BRISTOL-MYERS SQUIBB COMPANY, priority 2015, dated 2020) one finds IC50 data, which are given here for 15 compounds.

The structures appear in SMILES notation.

What is called IC50 is the concentration that inhibits the measured activity by half.

The target in this experiment is T1, PD-1/PD-L1 (Homo sapiens, UniProt Q9NZQ7).
T1 construct: made in house; host or cells: HEK293T
T1 sequence (Q9NZQ7 with tags, fused parts or gaps): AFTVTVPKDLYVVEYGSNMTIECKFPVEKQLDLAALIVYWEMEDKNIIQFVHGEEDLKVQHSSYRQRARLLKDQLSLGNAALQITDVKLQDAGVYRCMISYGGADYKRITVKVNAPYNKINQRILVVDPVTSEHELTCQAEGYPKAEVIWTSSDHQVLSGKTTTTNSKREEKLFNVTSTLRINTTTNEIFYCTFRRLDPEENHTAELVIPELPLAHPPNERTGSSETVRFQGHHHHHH
The experiment can be described thus: PD-1/PD-L1 Homogenous Time-Resolved Fluorescence (HTRF) binding assay. The following applies: PD-L1-His 10 nM, PD-1-Ig 20 nM; value given as range class; read-out: Range or IC50. An outline of the steps: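 dPBS + 0.1% BSA + 0.05% Tween-20 buffer; Eu-cryptate anti-Ig 1 nM final, APC anti-His 20 nM final; HTRF read. Counter-assays: PD-1-Ig/PD-L2-His 20 & 5 nM, CD80-His/PD-L1-Ig 100 & 10 nM.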
A general note: Time-resolved FRET reads energy transfer from a long-lived donor to a nearby acceptor.
For `Cc1c(COc2cc(OCc3cncc(C#N)c3)c(CNC(CO)CO)cc2Cl)cccc1-c1cccc(OCCCN(C)C[C@H](O)CO)c1Cl` [Example 2050, (S)-5-((4-chloro-5-((2′-chloro-3′-(3-((2,3-dihydroxypropyl)(methyl)amino)propoxy)-2-methyl-[1,1′-biphenyl]-3-yl)methoxy)-2-(((1,3-dihydroxypropan-2-yl)amino)methyl)phenoxy)methyl)nicotinonitrile], the IC50 was 0.21 to 10 nM. Regarding `Cc1c(COc2cc(OCc3cncc(C#N)c3)c(CNC(CO)CO)cc2Cl)cccc1-c1cccc(OCCCN2CCCCC2)c1Cl` [Example 2051, 5-((4-chloro-5-((2′-chloro-2-methyl-3′-(3-(piperidin-1-yl)propoxy)-[1,1′-biphenyl]-3-yl)methoxy)-2-(((1,3-dihydroxypropan-2-yl)amino)methyl)phenoxy)methyl)nicotinonitrile], the IC50 fell in the range of 0.21 to 10 nM. The value for `CC(=O)NC1CCN(CCCOc2cccc(-c3cccc(COc4cc(OCc5cncc(C#N)c5)c(CNC(CO)CO)cc4Cl)c3C)c2Cl)C1` (stereo not drawn) [Example 2052, N-(1-(3-((2-chloro-3′-((2-chloro-5-((5-cyanopyridin-3-yl)methoxy)-4-(((1,3-dihydroxypropan-2-yl)amino)methyl)phenoxy)methyl)-2′-methyl-[1,1′-biphenyl]-3-yl)oxy)propyl)pyrrolidin-3-yl)acetamide] was 0.21 to 10 nM. To `CC(CO)(CO)NCc1cc(Cl)c(OCc2cccc(-c3cccc(OCCCN4CC[C@@H](O)C4)c3Cl)c2Cl)cc1OCc1cncc(C#N)c1` [Example 2053, (R)-5-((4-chloro-5-((2,2′-dichloro-3′-(3-(3-hydroxypyrrolidin-1-yl)propoxy)-[1,1′-biphenyl]-3-yl)methoxy)-2-(((1,3-dihydroxy-2-methylpropan-2-yl)amino)methyl)phenoxy)methyl)nicotinonitrile] belongs 0.21 to 10 nM; to `CC(CO)(CO)NCc1cc(Cl)c(OCc2cccc(-c3cccc(OCCCNC[C@H](O)CO)c3Cl)c2Cl)cc1OCc1cncc(C#N)c1` [Example 2054, (S)-5-((4-chloro-5-((2,2′-dichloro-3′-(3-((2,3-dihydroxypropyl)amino)propoxy)-[1,1′-biphenyl]-3-yl)methoxy)-2-(((1,3-dihydroxy-2-methylpropan-2-yl)amino)methyl)phenoxy)methyl)nicotinonitrile], 0.21 to 10 nM; to `CC(CO)(CO)NCc1cc(Cl)c(OCc2cccc(-c3cccc(OCCCN4CC[C@@H](O)C4)c3Cl)c2Cl)cc1OCc1cc(C#N)ccc1F` [Example 2055, (R)-3-((4-chloro-5-((2,2′-dichloro-3′-(3-(3-hydroxypyrrolidin-1-yl)propoxy)-[1,1′-biphenyl]-3-yl)methoxy)-2-(((1,3-dihydroxy-2-methylpropan-2-yl)amino)methyl)phenoxy)methyl)-4-fluorobenzonitrile], 0.21 to 10 nM.

`Cc1c(COc2cc(OCc3cncc(C#N)c3)c(CNC(CO)CO)cc2Cl)cccc1-c1cccc(OCCCN2CCC(O)(C(=O)O)CC2)c1Cl` [Example 2056, 1-(3-((2-chloro-3′-((2-chloro-5-((5-cyanopyridin-3-yl)methoxy)-4-(((1,3-dihydroxypropan-2-yl)amino)methyl)phenoxy)methyl)-2′-methyl-[1,1′-biphenyl]-3-yl)oxy)propyl)-4-hydroxypiperidine-4-carboxylic Acid]: the IC50 fell in the range of 0.21 to 10 nM. Turning to `Cc1c(COc2cc(OCc3cncc(C#N)c3)c(CN(C)C(CO)CO)cc2Cl)cccc1-c1cccc(OCCCNC[C@H](O)CO)c1Cl` [Example 2057, (S)-5-((4-chloro-5-((2′-chloro-3′-(3-((2,3-dihydroxypropyl)amino)propoxy)-2-methyl-[1,1′-biphenyl]-3-yl)methoxy)-2-(((1,3-dihydroxypropan-2-yl)(methyl)amino)methyl)phenoxy)methyl)nicotinonitrile], the IC50 was 0.21 to 10 nM.

Regarding `C[C@](CO)(NCc1cc(Cl)c(OCc2cccc(-c3cccc(OCCCN4CCCCC4)c3Cl)c2Cl)cc1OCc1cncc(C#N)c1)C(=O)O` [Example 2058, (R)-2-((5-chloro-2-((5-cyanopyridin-3-yl)methoxy)-4-((2,2′-dichloro-3′-(3-(piperidin-1-yl)propoxy)-[1,1′-biphenyl]-3-yl)methoxy)benzyl)amino)-3-hydroxy-2-methylpropanoic Acid], the 50% inhibitory concentration (IC50) was in the range of 0.21 to 10 nM.

On to `CC(CO)(CO)NCc1cc(Cl)c(OCc2cccc(-c3cccc(OCCCN4CC[C@@H](O)C4)c3Cl)c2Cl)cc1OCc1cccc(C#N)c1` [Example 2059, (R)-3-((4-chloro-5-((2,2′-dichloro-3′-(3-(3-hydroxypyrrolidin-1-yl)propoxy)-[1,1′-biphenyl]-3-yl)methoxy)-2-(((1,3-dihydroxy-2-methylpropan-2-yl)amino)methyl)phenoxy)methyl)benzonitrile], for which the half-maximal inhibitory concentration (IC50) is 0.21 to 10 nM. The value for `CC(CO)(CO)NCc1cc(Cl)c(OCc2cccc(-c3cccc(OCCCNC[C@H](O)CO)c3Cl)c2Cl)cc1OCc1cccc(C#N)c1` [Example 2060, (S)-3-((4-chloro-5-((2,2′-dichloro-3′-(3-((2,3-dihydroxypropyl)amino)propoxy)-[1,1′-biphenyl]-3-yl)methoxy)-2-(((1,3-dihydroxy-2-methylpropan-2-yl)amino)methyl)phenoxy)methyl)benzonitrile] was 0.21 to 10 nM; that for `Cc1c(COc2cc(OCc3cncc(C#N)c3)c(CN[C@](C)(CO)C(=O)O)cc2Cl)cccc1-c1cccc(OCCCN2CCC(O)(CO)CC2)c1Cl` [Example 2061, (R)-2-((5-chloro-4-((2′-chloro-3′-(3-(4-hydroxy-4-(hydroxymethyl)piperidin-1-yl)propoxy)-2-methyl-[1,1′-biphenyl]-3-yl)methoxy)-2-((5-cyanopyridin-3-yl)methoxy)benzyl)amino)-3-hydroxy-2-methylpropanoic Acid] was 0.21 to 10 nM; that for `CC(=O)NC1CCN(CCCOc2cccc(-c3cccc(COc4cc(OCc5cncc(C#N)c5)c(CNC(CO)CO)cc4Cl)c3C)c2Cl)CC1` [Example 2062, N-(1-(3-((2-chloro-3′-((2-chloro-5-((5-cyanopyridin-3-yl)methoxy)-4-(((1,3-dihydroxypropan-2-yl)amino)methyl)phenoxy)methyl)-2′-methyl-[1,1′-biphenyl]-3-yl)oxy)propyl)piperidin-4-yl)acetamide] was 0.21 to 10 nM. To `Cc1c(COc2cc(OCc3cncc(C#N)c3)c(CNC(CO)CO)cc2Cl)cccc1-c1cccc(OCCCN2CCC(O)(CO)CC2)c1Cl` [Example 2063, 5-((4-chloro-5-((2′-chloro-3′-(3-(4-hydroxy-4-(hydroxymethyl)piperidin-1-yl)propoxy)-2-methyl-[1,1′-biphenyl]-3-yl)methoxy)-2-(((1,3-dihydroxypropan-2-yl)amino)methyl)phenoxy)methyl)nicotinonitrile] belongs 100 to 2000 nM.

As for `CN(CCCOc1cccc(-c2cccc(COc3cc(OCc4cncc(C#N)c4)c(CN[C@](C)(CO)C(=O)O)cc3Cl)c2Cl)c1Cl)C[C@H](O)CO` [Example 2064, (R)-2-((5-chloro-2-((5-cyanopyridin-3-yl)methoxy)-4-((2,2′-dichloro-3′-(3-(((S)-2,3-dihydroxypropyl)(methyl)amino)propoxy)-[1,1′-biphenyl]-3-yl)methoxy)benzyl)amino)-3-hydroxy-2-methylpropanoic Acid], the 50% inhibitory concentration (IC50) was 0.21 to 10 nM.
